{
  "source": "patent US10472341B2",
  "about": "“Bicyclic tetrahydrothiazepine derivatives useful for the treatment of neoplastic and/or infectious diseases” (APEIRON BIOLOGICS AG, priority 2015, dated 2019)",
  "key": {"[1]": {"test_system": "aCD3/aCD28-stimulated human CD4+-T-cells", "experiment": "IL-2 production and activation markers in aCD3/aCD28 stimulated isolated human CD4+-T-cells", "type": "cell-based", "details": "IL-2 production at 3 μM compound", "method": "• Buffy coat content was transferred to sterile plastic bottle and filled up to 480 ml with PBS, and distributed equally to 16×50 ml tubes (30 ml/tube) • Underlayed with ˜11 ml Lymphoprep and centrifuged 20 min (2200 rpm) • The interphase containing lymphocytes was taken off with transfer pipette, cells were washed twice with PBS and pooled to one tube to determine cell count (Coulter Diff ACT) Isolation of Immune Cell Subfractions from PBMCs by MACS • PBMCs were resuspended in MACS buffer (80 μl MACS-buffer/10^7 cells) and cells were isolated with Auto-MACS device using respective kits following manufacturer's recommendations TCR Stimulation and Measurement of T Cell Activation\nIsolated T cells were plated in Xvivo medium at 1.5*10 ^5 cells per in 96 well culture plates and TCR-stimulated with anti-CD3/28 mAbs in the presence of compound as indicated. Cytokine production was determined at 24 h or 48 h following TCR stimulation in cell culture supernatants using commercially available ELISA kits (BD and eBioscience) as recommended by the manufacturer. T cell proliferation and CD25 expression (CD25-PC5 reagent purchased from Beckman Coulter) was determined by flow cytometry (Beckman-Coulter FC500) and analysed with Kaluza Software. For measurement of CD69 expression, isolated CD4 and CD8 T cells were plated in Xvivo medium at […] per in 96 well culture plates and TCR-stimulated with anti-CD3/28 mAbs in the presence of compound. CD69 expression was determined at 24 h following TCR stimulation by flow cytometry (CD4eF450, CD8APCeF780 and CD69-PC7 reagent purchased from eBioscience) and analysed with Kaluza Software.\nBuffy coats were obtained from Austrian Red Cross, diluted 3 fold with PBS and layered onto an isotonic Ficoll separating solution d=1.077 g/m in 50 ml centrifuge tubes. The tubes were centrifuged at 914 g for 25 min at room temperature with the brakes off. The PBMC layer was removed and washed twice with ice-cold PBS. CD4 T cells were isolated using CD4 microbeads (Milteny) and the AutoMACS device following manufacturer's instructions.\nCompound examples of the present invention were classified according to the following activity criteria and are listed in Table 4a: • Activity Class A: IL-2 production at 3 μM compound concentration >10 ng/mL • Activity Class B: IL-2 production at 3 μM compound concentration between 2-10 ng/mL • Activity Class C: IL-2 production at 3 μM compound concentration between 2-fold increase as compared to mean IL-2 production of stimulated cells in the absence of compounds and <2 ng/mL"}, "[2]": {"test_system": "aCD3/aCD28-stimulated human PBMCs", "experiment": "Cytokine production in aCD3/aCD28 stimulated human PBMCs", "type": "cell-based", "details": "PBMC, 18 h", "method": "In order to determine the immune modulatory effect of compounds of compounds of the present invention in human PBMCs, compounds were assessed in the following assay set-up:\nBuffy coats were obtained from a local hospital, diluted 3 fold with PBS and layered onto an isotonic Ficoll separating solution d=1.077 g/mL in 50 mL centrifuge tubes. The tubes were centrifuged at 914 g for 25 min at room temperature with the brakes off. The PBMC layer was removed and washed twice with ice-cold PBS. Erythrocytes were lysed by addition of ddH2O and cells were resuspended in X-Vivo15 (Lonza).\n1e6 cells/mL were stimulated with soluble anti CD3/CD28 antibodies (1 μg/mL both, clones OKT3 and 28.2) in the presence of described compounds. Cells were incubated for 18 h at 37° C., 5% CO2. Assay plates were centrifuged at 400 g for 5 min and supernatants harvested. Cytokine concentration in tissue culture supernatants were determined with MSD or HTRF kits (MSD and Cisbio), according to manufacturer's instructions."}, "[3]": {"details": "enhancement of IFN-γ production, read-out: Activity Class IFN-γ"}, "[4]": {"details": "enhancement of IL-2 production, read-out: Activity Class IL-2"}},
  "note": "Like-named read-outs stand apart in the source and are kept apart here.",
  "data": [
    {"smiles": "Cl.N[C@H]1CS(=O)(=O)c2cc(F)c(C(=O)N[C@H]3C[C@@H]3c3ccccc3)cc2N(Cc2ccc(Cl)cc2)C1=O", "note": "[Example 98, (3R)-3-amino-5-[(4-chlorophenyl)methyl]-8-fluoro-1,1,4-trioxo-N-[(1S,2R)-2-phenylcyclopropyl]-2,3,4,5-tetrahydro-1λ^6,5-benzothiazepine-7-carboxamide hydrochloride]", "values": [
      {"measurement": "Activity Class CD4+", "setting": "[1]", "result": "A (IL-2 production at 3 μM compound concentration >10 ng/mL)"},
      {"measurement": "EC50", "setting": "[2]; [3]", "result": "< 1580", "unit": "nM"},
      {"measurement": "EC50", "setting": "[2]; [4]", "result": "< 1580", "unit": "nM"}
    ]},
    {"smiles": "CCCCNC(=O)c1cc2c(cc1F)SC[C@H](N)C(=O)N2Cc1ccc(Cl)cc1F.Cl", "note": "[Example 54, (3R)-3-amino-N-butyl-5-[(4-chloro-2-fluorophenyl)methyl]-8-fluoro-4-oxo-2,3,4,5-tetrahydro-1,5-benzothiazepine-7-carboxamide hydrochloride]", "values": [
      {"measurement": "Activity Class CD4+", "setting": "[1]", "result": "B (IL-2 production at 3 μM compound concentration between 2-10 ng/mL)"},
      {"measurement": "EC50", "setting": "[2]; [3]", "result": "1580 to 5010", "unit": "nM"},
      {"measurement": "EC50", "setting": "[2]; [4]", "result": "1580 to 5010", "unit": "nM"}
    ]},
    {"smiles": "CCC(C)NC(=O)c1cc2c(cc1F)S(=O)(=O)C[C@H](N)C(=O)N2Cc1ccc(Cl)cc1.Cl", "note": "(stereo partly drawn) [Example 95, (3R)-3-amino-N-(butan-2-yl)-5-[(4-chlorophenyl)methyl]-8-fluoro-1,1,4-trioxo-2,3,4,5-tetrahydro-1λ^6,5-benzothiazepine-7-carboxamide hydrochloride]", "values": [
      {"measurement": "Activity Class CD4+", "setting": "[1]", "result": "B (IL-2 production at 3 μM compound concentration between 2-10 ng/mL)"},
      {"measurement": "EC50", "setting": "[2]; [3]", "result": "< 1580", "unit": "nM"},
      {"measurement": "EC50", "setting": "[2]; [4]", "result": "1580 to 5010", "unit": "nM"}
    ]},
    {"smiles": "CC(C)CNNC(=O)c1cc2c(cc1F)SC[C@H](N)C(=O)N2Cc1ccc(Cl)cc1.Cl", "note": "[Example 60, (3R)-3-amino-5-[(4-chlorophenyl)methyl]-8-fluoro-N′-(2-methylpropyl)-4-oxo-2,3,4,5-tetrahydro-1,5-benzothiazepine-7-carbohydrazide hydrochloride]", "values": [
      {"measurement": "Activity Class CD4+", "setting": "[1]", "result": "C (IL-2 production at 3 μM compound concentration between 2-fold increase as compared to mean IL-2 production of stimulated cells in the absence of compounds and <2 ng/mL)"},
      {"measurement": "EC50", "setting": "[2]; [3]", "result": "< 1580", "unit": "nM"},
      {"measurement": "EC50", "setting": "[2]; [4]", "result": "1580 to 5010", "unit": "nM"}
    ]},
    {"smiles": "CCCCNC(=O)c1cc2c(cc1F)SC[C@H](N)C(=O)N2Cc1ccc(OC(F)(F)F)cc1.Cl", "note": "[Example 5, (3R)-3-amino-N-butyl-8-fluoro-4-oxo-5-{[4-(trifluoromethoxy)phenyl]methyl}-2,3,4,5-tetrahydro-1,5-benzothiazepine-7-carboxamide hydrochloride]", "values": [
      {"measurement": "Activity Class CD4+", "setting": "[1]", "result": "B (IL-2 production at 3 μM compound concentration between 2-10 ng/mL)"},
      {"measurement": "EC50", "setting": "[2]; [3]", "result": "1580 to 5010", "unit": "nM"},
      {"measurement": "EC50", "setting": "[2]; [4]", "result": "> 5010", "unit": "nM"}
    ]},
    {"smiles": "CCCONC(=O)c1ccc2c(c1)N(Cc1ccc(Cl)cc1)C(=O)[C@@H](N)CS2(=O)=O.Cl", "note": "[Example 82, (3R)-3-amino-5-[(4-chlorophenyl)methyl]-1,1,4-trioxo-N-propoxy-2,3,4,5-tetrahydro-1λ^6,5-benzothiazepine-7-carboxamide hydrochloride]", "values": [
      {"measurement": "Activity Class CD4+", "setting": "[1]", "result": "C (IL-2 production at 3 μM compound concentration between 2-fold increase as compared to mean IL-2 production of stimulated cells in the absence of compounds and <2 ng/mL)"}
    ]},
    {"smiles": "CC(C)NC(=O)c1cc2c(cc1F)SC[C@H](N)C(=O)N2Cc1ccc(OC(F)(F)F)cc1.Cl", "note": "[Example 15, (3R)-3-amino-8-fluoro-4-oxo-N-(propan-2-yl)-5-{[4-(trifluoromethoxy)phenyl]-methyl}-2,3,4,5-tetrahydro-1,5-benzothiazepine-7-carboxamide hydrochloride]", "values": [
      {"measurement": "Activity Class CD4+", "setting": "[1]", "result": "B (IL-2 production at 3 μM compound concentration between 2-10 ng/mL)"}
    ]},
    {"smiles": "Cl.N[C@H]1CSc2ccc(C(=O)NC3CCOCC3)cc2N(Cc2ccc(OC(F)(F)F)cc2)C1=O", "note": "[Example 8, (3R)-3-amino-N-(oxan-4-yl)-4-oxo-5-{[4-(trifluoromethoxy)phenyl]methyl}-2,3,4,5-tetrahydro-1,5-benzothiazepine-7-carboxamide hydrochloride]", "values": [
      {"measurement": "Activity Class CD4+", "setting": "[1]", "result": "C (IL-2 production at 3 μM compound concentration between 2-fold increase as compared to mean IL-2 production of stimulated cells in the absence of compounds and <2 ng/mL)"}
    ]},
    {"smiles": "Cl.N[C@H]1CS(=O)(=O)c2ccc(C(=O)NOCC3CCCCC3)cc2N(Cc2ccc(Cl)cc2)C1=O", "note": "[Example 91, (3R)-3-amino-5-[(4-chlorophenyl)methyl]-N-(cyclohexylmethoxy)-1,1,4-trioxo-2,3,4,5-tetrahydro-1λ^6,5-benzothiazepine-7-carboxamide hydrochloride]", "values": [
      {"measurement": "Activity Class CD4+", "setting": "[1]", "result": "B (IL-2 production at 3 μM compound concentration between 2-10 ng/mL)"}
    ]},
    {"smiles": "Cl.N[C@H]1CSc2ccc(C(=O)NCc3ccc(F)cc3)cc2N(Cc2ccc(-c3csnn3)cc2)C1=O", "note": "[Example 32, (3R)-3-amino-N-[(4-fluorophenyl)methyl]-4-oxo-5-{[4-(1,2,3-thiadiazol-4-yl)phenyl]-methyl}-2,3,4,5-tetrahydro-1,5-benzothiazepine-7-carboxamide hydrochloride]", "values": [
      {"measurement": "Activity Class CD4+", "setting": "[1]", "result": "C (IL-2 production at 3 μM compound concentration between 2-fold increase as compared to mean IL-2 production of stimulated cells in the absence of compounds and <2 ng/mL)"}
    ]},
    {"smiles": "Cl.N[C@H]1CSc2cc(F)c(C(=O)NC3CCOCC3)cc2N(Cc2ccc(OC(F)(F)F)cc2)C1=O", "note": "[Example 14, (3R)-3-amino-8-fluoro-N-(oxan-4-yl)-4-oxo-5-{[4-(trifluoromethoxy)phenyl]methyl}-2,3,4,5-tetrahydro-1,5-benzothiazepine-7-carboxamide hydrochloride]", "values": [
      {"measurement": "Activity Class CD4+", "setting": "[1]", "result": "C (IL-2 production at 3 μM compound concentration between 2-fold increase as compared to mean IL-2 production of stimulated cells in the absence of compounds and <2 ng/mL)"}
    ]},
    {"smiles": "CCCCNC(=O)c1ccc2c(c1)N(Cc1ccc(N3CCOCC3)cc1)C(=O)[C@@H](N)CS2.Cl", "note": "[Example 13, (3R)-3-amino-N-butyl-5-{[4-(morpholin-4-yl)phenyl]methyl}-4-oxo-2,3,4,5-tetrahydro-1,5-benzothiazepine-7-carboxamide hydrochloride]", "values": [
      {"measurement": "Activity Class CD4+", "setting": "[1]", "result": "C (IL-2 production at 3 μM compound concentration between 2-fold increase as compared to mean IL-2 production of stimulated cells in the absence of compounds and <2 ng/mL)"}
    ]},
    {"smiles": "CCCCNC(=O)c1cc2c(cc1F)SC[C@H](N)C(=O)N2Cc1ccc2ccccc2n1.Cl.Cl", "note": "[Example 112, (3R)-3-amino-N-butyl-8-fluoro-4-oxo-5-(quinolin-2-ylmethyl)-2,3,4,5-tetrahydro-1,5-benzothiazepine-7-carboxamide dihydrochloride]", "values": [
      {"measurement": "Activity Class CD4+", "setting": "[1]", "result": "C (IL-2 production at 3 μM compound concentration between 2-fold increase as compared to mean IL-2 production of stimulated cells in the absence of compounds and <2 ng/mL)"}
    ]},
    {"smiles": "Cl.N[C@H]1CS(=O)(=O)c2cc(F)c(C(=O)NOc3ccccc3)cc2N(Cc2ccc(Cl)cc2)C1=O", "note": "[Example 76, (3R)-3-amino-5-[(4-chlorophenyl)methyl]-8-fluoro-1,1,4-trioxo-N-phenoxy-2,3,4,5-tetrahydro-1λ^6,5-benzothiazepine-7-carboxamide hydrochloride]", "values": [
      {"measurement": "Activity Class CD4+", "setting": "[1]", "result": "C (IL-2 production at 3 μM compound concentration between 2-fold increase as compared to mean IL-2 production of stimulated cells in the absence of compounds and <2 ng/mL)"}
    ]},
    {"smiles": "C[C@H](NC(=O)c1ccc2c(c1)N(Cc1ccc(Cl)cc1)C(=O)[C@@H](N)CS2)c1ccc(F)cc1.Cl", "note": "[Example 49, (3R)-3-amino-5-[(4-chlorophenyl)methyl]-N-[(1S)-1-(4-fluorophenyl)ethyl]-4-oxo-2,3,4,5-tetrahydro-1,5-benzothiazepine-7-carboxamide hydrochloride]", "values": [
      {"measurement": "Activity Class CD4+", "setting": "[1]", "result": "C (IL-2 production at 3 μM compound concentration between 2-fold increase as compared to mean IL-2 production of stimulated cells in the absence of compounds and <2 ng/mL)"}
    ]}
  ]
}
